Test results reported in ChEMBL document CHEMBL3991601, “The target landscape of clinical kinase drugs” (Science, 2017).
The source made the active and inactive calls.

How the values were obtained:
[1] = target: T1, ATP-dependent RNA helicase DHX30 (Homo sapiens, UniProt Q7L2E3)
T1 sequence (Q7L2E3 whole entry): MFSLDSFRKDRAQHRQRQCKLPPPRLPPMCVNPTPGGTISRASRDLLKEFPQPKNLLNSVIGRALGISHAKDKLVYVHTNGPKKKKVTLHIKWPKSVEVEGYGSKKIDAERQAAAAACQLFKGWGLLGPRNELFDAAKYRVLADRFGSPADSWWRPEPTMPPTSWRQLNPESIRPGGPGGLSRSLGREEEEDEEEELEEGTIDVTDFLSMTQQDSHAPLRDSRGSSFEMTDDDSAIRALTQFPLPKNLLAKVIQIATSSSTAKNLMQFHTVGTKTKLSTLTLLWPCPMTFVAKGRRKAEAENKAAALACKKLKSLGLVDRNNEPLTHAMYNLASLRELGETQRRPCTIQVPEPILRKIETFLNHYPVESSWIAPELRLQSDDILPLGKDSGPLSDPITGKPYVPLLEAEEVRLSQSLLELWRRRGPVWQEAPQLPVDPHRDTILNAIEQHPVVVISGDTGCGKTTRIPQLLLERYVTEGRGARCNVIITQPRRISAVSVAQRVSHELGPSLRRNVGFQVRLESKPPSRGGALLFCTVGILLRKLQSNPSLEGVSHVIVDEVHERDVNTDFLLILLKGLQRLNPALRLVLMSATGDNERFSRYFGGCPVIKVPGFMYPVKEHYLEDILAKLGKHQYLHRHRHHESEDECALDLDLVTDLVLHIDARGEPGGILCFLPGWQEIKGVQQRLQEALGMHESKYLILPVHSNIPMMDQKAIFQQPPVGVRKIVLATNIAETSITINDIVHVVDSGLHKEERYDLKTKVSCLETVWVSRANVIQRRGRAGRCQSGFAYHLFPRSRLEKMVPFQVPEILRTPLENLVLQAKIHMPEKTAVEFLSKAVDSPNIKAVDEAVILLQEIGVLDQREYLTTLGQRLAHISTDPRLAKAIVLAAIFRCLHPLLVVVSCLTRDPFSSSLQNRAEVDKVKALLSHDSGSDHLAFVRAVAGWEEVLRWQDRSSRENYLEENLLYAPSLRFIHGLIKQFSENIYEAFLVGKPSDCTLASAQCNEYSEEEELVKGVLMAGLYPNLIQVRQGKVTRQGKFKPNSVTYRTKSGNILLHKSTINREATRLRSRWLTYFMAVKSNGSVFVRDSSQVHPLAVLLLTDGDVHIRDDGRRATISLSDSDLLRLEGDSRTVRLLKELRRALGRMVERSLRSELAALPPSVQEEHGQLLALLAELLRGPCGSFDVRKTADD

[2] = target: Tyrosine-protein kinase Lck (Homo sapiens, UniProt P06239)
Tyrosine-protein kinase Lck, sequence (P06239 whole entry): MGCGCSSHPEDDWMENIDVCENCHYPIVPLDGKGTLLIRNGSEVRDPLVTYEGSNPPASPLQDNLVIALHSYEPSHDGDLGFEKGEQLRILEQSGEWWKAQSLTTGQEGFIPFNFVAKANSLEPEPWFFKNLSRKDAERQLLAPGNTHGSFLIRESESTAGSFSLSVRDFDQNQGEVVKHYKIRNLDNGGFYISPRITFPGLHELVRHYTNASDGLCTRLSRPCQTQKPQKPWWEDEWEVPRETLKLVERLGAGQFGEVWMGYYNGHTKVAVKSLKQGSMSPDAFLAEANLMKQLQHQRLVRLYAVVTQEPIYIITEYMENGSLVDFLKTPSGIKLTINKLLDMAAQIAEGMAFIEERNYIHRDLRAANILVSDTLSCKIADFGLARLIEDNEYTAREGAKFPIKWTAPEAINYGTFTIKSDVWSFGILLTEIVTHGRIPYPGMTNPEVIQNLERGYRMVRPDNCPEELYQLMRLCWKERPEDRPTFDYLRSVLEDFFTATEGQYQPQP

[3] = target: T2, Dual specificity mitogen-activated protein kinase kinase 4 (Homo sapiens, UniProt P45985)
T2 sequence (P45985 whole entry): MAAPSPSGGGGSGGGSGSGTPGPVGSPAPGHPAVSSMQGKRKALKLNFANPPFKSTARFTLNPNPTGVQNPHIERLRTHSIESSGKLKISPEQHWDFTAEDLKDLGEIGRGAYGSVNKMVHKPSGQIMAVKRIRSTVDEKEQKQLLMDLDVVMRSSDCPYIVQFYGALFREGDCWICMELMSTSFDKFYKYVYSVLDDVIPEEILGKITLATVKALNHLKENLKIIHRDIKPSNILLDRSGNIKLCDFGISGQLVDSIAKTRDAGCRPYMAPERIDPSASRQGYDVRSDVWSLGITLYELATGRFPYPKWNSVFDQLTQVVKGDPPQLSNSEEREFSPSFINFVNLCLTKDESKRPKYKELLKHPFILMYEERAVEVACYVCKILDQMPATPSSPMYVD

[4] = target: MAP kinase-activated protein kinase 3 (Homo sapiens, UniProt Q16644)
MAP kinase-activated protein kinase 3, sequence (Q16644 whole entry): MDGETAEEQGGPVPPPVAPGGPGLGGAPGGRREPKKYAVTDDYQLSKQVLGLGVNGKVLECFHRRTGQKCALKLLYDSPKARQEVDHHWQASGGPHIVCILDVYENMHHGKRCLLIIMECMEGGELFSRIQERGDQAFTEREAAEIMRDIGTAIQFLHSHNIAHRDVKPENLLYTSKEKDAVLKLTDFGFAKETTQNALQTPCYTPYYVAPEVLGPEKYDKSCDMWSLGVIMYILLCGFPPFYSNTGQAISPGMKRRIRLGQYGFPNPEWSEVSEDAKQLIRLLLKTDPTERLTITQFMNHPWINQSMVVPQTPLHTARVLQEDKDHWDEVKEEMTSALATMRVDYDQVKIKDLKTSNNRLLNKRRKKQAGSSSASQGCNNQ

[5] = target: T3, Tyrosine-protein kinase Mer (Homo sapiens, UniProt Q12866)
T3 sequence (Q12866 whole entry): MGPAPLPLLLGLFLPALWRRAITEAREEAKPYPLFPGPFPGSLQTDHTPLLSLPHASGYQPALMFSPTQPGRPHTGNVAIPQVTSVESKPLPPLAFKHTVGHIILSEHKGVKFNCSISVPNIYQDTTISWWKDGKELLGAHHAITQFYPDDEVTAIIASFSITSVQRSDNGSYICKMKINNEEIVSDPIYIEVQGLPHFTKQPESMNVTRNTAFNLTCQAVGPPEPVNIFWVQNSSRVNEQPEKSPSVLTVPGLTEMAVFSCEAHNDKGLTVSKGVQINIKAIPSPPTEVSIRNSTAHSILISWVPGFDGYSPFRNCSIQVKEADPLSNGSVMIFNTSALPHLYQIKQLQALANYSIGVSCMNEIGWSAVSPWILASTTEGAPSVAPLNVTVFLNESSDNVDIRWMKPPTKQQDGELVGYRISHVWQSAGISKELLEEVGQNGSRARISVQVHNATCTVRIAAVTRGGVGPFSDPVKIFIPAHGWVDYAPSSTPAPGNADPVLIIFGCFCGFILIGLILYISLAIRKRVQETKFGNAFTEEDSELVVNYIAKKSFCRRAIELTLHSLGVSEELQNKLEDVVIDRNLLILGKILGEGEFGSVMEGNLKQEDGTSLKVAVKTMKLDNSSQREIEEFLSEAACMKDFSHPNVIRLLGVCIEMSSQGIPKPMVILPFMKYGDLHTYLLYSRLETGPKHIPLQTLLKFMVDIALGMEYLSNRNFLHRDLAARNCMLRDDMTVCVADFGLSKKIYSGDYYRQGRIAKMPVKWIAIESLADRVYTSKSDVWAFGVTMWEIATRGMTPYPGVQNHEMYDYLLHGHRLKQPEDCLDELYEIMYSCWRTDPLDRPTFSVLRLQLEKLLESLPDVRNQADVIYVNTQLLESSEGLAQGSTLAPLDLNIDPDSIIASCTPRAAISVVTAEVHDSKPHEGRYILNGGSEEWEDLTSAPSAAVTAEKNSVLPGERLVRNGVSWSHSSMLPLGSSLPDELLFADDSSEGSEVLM

[6] = target: Misshapen-like kinase 1 (Homo sapiens, UniProt Q8N4C8)
[7] = target: Myosin-10 (Homo sapiens, UniProt P35580)
Myosin-10, sequence (P35580 whole entry): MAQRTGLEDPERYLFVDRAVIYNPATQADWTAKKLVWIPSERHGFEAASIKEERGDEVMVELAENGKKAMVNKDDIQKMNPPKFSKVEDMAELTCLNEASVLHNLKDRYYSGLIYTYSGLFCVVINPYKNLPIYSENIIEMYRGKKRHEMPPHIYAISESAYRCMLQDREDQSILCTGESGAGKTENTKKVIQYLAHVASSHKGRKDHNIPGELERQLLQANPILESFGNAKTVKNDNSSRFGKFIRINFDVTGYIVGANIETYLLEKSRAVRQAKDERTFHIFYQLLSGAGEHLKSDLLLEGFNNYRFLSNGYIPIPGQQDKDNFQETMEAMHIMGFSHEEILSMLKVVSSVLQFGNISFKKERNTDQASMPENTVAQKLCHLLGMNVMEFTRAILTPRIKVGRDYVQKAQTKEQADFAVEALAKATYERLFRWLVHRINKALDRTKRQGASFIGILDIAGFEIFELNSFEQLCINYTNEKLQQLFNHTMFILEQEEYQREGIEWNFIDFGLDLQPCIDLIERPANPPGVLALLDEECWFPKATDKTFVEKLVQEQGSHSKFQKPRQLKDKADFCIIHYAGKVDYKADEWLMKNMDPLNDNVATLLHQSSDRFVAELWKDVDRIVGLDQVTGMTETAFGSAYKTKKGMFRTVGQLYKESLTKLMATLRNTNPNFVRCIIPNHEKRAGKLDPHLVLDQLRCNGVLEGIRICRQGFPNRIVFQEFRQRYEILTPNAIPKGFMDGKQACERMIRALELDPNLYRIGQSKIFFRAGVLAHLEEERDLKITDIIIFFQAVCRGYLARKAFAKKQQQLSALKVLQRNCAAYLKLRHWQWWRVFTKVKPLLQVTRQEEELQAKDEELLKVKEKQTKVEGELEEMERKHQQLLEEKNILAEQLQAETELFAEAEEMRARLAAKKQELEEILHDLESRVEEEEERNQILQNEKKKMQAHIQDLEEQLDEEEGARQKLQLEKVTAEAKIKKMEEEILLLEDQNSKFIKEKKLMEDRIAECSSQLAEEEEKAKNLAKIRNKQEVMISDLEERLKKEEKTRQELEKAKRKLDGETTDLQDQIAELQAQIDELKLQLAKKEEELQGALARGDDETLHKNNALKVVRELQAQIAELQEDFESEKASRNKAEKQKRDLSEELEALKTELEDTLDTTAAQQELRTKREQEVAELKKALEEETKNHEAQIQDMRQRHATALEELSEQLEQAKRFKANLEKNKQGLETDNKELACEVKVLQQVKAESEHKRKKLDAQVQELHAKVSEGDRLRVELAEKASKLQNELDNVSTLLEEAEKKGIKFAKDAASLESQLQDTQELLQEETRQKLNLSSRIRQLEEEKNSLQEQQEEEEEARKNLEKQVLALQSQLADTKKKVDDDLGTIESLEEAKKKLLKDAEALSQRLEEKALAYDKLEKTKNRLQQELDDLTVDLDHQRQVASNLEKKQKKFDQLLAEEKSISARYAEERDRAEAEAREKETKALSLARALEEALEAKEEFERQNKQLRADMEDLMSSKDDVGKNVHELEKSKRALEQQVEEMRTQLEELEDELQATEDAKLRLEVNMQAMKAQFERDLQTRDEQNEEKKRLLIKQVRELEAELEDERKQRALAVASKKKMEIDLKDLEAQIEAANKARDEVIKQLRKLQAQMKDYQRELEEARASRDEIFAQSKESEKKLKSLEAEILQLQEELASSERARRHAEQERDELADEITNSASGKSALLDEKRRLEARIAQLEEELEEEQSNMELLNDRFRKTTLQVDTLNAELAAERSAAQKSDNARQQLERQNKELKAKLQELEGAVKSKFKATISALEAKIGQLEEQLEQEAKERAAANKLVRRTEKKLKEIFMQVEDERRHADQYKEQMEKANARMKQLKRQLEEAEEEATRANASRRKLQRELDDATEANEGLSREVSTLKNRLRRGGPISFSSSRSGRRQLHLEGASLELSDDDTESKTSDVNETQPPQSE

[8] = target: Serine/threonine-protein kinase Nek7 (Homo sapiens, UniProt Q8TDX7)
Serine/threonine-protein kinase Nek7, sequence (Q8TDX7 whole entry): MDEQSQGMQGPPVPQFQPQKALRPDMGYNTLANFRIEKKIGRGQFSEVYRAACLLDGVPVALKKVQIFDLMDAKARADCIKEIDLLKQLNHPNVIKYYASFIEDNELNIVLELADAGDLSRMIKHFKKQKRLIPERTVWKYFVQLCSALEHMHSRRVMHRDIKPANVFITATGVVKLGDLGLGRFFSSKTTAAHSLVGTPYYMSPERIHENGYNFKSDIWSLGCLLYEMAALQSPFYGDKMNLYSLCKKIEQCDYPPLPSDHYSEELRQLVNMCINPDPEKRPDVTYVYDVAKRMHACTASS

[9] = target: Cyclin-dependent kinase 10 (Homo sapiens, UniProt Q15131)
Cyclin-dependent kinase 10, sequence (Q15131 whole entry): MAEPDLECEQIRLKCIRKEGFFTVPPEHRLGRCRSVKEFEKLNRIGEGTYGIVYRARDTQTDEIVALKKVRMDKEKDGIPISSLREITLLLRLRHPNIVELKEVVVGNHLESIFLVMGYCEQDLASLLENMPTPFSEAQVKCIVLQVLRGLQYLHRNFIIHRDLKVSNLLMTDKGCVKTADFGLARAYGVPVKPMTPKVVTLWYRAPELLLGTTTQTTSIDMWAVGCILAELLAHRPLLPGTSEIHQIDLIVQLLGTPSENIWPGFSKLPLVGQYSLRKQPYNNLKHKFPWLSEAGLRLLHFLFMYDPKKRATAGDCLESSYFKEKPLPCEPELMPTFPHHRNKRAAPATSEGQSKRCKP

[10] = target: Serine/threonine-protein kinase 38-like (Homo sapiens, UniProt Q9Y2H1)
Serine/threonine-protein kinase 38-like, sequence (Q9Y2H1 whole entry): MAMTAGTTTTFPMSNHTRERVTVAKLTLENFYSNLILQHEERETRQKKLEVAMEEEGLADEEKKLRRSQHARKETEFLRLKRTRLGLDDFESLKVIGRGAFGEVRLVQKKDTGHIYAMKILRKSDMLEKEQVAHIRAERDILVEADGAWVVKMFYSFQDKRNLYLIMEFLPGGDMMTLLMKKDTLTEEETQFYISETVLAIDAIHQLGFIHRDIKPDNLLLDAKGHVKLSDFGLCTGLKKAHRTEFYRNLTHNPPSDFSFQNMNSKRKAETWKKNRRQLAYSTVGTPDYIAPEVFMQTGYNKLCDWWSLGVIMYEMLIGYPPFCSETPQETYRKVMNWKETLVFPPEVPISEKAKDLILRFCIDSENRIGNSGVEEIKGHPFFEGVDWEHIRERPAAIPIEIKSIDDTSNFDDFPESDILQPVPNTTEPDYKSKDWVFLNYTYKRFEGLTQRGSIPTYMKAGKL
Note: in the data inactive means no Kd found up to 30 µM.

SMILES | Kd [1] | Kd [2] | Kd [3] | Kd [4] | Kd [5] | Kd [6] | Kd [7] | Kd [8] | Kd [9] | Kd [10]
C#Cc1cccc(Nc2ncnc3cc4c(cc23)OCCOCCOCCO4)c1 [ICOTINIB] | > 30 µM (inactive) | > 30 µM (inactive) | > 30 µM (inactive) | > 30 µM (inactive) | > 30 µM (inactive) | > 30 µM (inactive) | > 30 µM (inactive) | > 30 µM (inactive) | – | –
C[C@]1(O)C[C@@H](c2nc(-c3ccc4ccc(-c5ccccc5)nc4c3)c3c(N)nccn32)C1 [LINSITINIB] | > 30 µM (inactive) | – | > 30 µM (inactive) | – | > 30 µM (inactive) | > 30 µM (inactive) | > 30 µM (inactive) | – | > 30 µM (inactive) | –
COc1cc2ncnc(Nc3ccc(O)cc3)c2cc1OC [WHI-P131] | > 30 µM (inactive) | > 30 µM (inactive) | > 30 µM (inactive) | – | – | – | > 30 µM (inactive) | > 30 µM (inactive) | > 30 µM (inactive) | –
CN(c1ncccc1CNc1nc(Nc2ccc3c(c2)CC(=O)N3)ncc1C(F)(F)F)S(C)(=O)=O [PF-00562271] | – | – | – | – | – | – | > 30 µM (inactive) | – | > 30 µM (inactive) | –
O[C@H]1CC[C@H](Nc2ncc3nc(Nc4c(F)cc(F)cc4F)n([C@H]4CCOC4)c3n2)CC1 [TANZISERTIB] | > 30 µM (inactive) | > 30 µM (inactive) | – | > 30 µM (inactive) | > 30 µM (inactive) | > 30 µM (inactive) | – | > 30 µM (inactive) | – | > 30 µM (inactive)
S=C(NCc1ccc2c(c1)OCO2)N1CCN(c2ncnc3c2oc2ccccc23)CC1 [AMUVATINIB] | > 30 µM (inactive) | > 30 µM (inactive) | > 30 µM (inactive) | > 30 µM (inactive) | > 30 µM (inactive) | > 30 µM (inactive) | > 30 µM (inactive) | > 30 µM (inactive) | > 30 µM (inactive) | –
CN1CCN(c2nc(C3=C(c4c[nH]c5ccccc45)C(=O)NC3=O)c3ccccc3n2)CC1 [SOTRASTAURIN] | – | > 30 µM (inactive) | – | – | > 30 µM (inactive) | 0.041 µM (active) | – | – | > 30 µM (inactive) | > 30 µM (inactive)
CNC(=O)c1cc(COc2nnc(Nc3ccc(Cl)cc3)c3ccoc23)ccn1 [TELATINIB] | – | > 30 µM (inactive) | – | – | – | > 30 µM (inactive) | – | – | > 30 µM (inactive) | –
Cc1ccc(C(=O)Nc2ccc(Oc3cc4cnn(C)c4cc3-c3cn[nH]c3)c(F)c2)c(=O)n1-c1ccc(F)cc1 [MERESTINIB] | > 30 µM (inactive) | > 30 µM (inactive) | > 30 µM (inactive) | > 30 µM (inactive) | – | > 30 µM (inactive) | > 30 µM (inactive) | – | > 30 µM (inactive) | > 30 µM (inactive)
CNC(=O)c1cccc(-c2ccc3c(N4CCOC[C@@H]4C)nc(N4CCOC[C@@H]4C)nc3n2)c1 [VISTUSERTIB] | – | > 30 µM (inactive) | – | > 30 µM (inactive) | > 30 µM (inactive) | – | > 30 µM (inactive) | – | – | > 30 µM (inactive)
c1cc(OCCN2CCCCC2)cc(-c2n[nH]c3ccc(-c4nc[nH]n4)cc23)c1 [CC-401] | > 30 µM (inactive) | > 30 µM (inactive) | – | > 30 µM (inactive) | > 30 µM (inactive) | – | – | > 30 µM (inactive) | – | > 30 µM (inactive)
COc1ccc2c(OCc3nnc4ccc(-c5ccccc5)nn34)ccnc2c1 [AMG-208] | – | > 30 µM (inactive) | > 30 µM (inactive) | > 30 µM (inactive) | > 30 µM (inactive) | – | > 30 µM (inactive) | – | – | > 30 µM (inactive)
Cc1c(Cn2c(C)nc3c(C(=O)O)cc(N4CCOCC4)cc32)cccc1C(F)(F)F [GSK-2636771] | – | > 30 µM (inactive) | > 30 µM (inactive) | – | – | – | – | > 30 µM (inactive) | > 30 µM (inactive) | –
Cn1cc(-c2[nH]c3cc(NC(=O)[C@H](N)C4CCCCC4)cc4c3c2C=NNC4=O)cn1 | > 30 µM (inactive) | 1.38 µM (active) | – | – | 0.018 µM | 0.02 µM | > 30 µM (inactive) | > 30 µM (inactive) | > 30 µM (inactive) | > 30 µM (inactive)
O=C(NOC[C@H](O)CO)c1ccc(F)c(F)c1Nc1ccc(I)cc1F [MIRDAMETINIB] | > 30 µM (inactive) | > 30 µM (inactive) | > 30 µM (inactive) | > 30 µM (inactive) | > 30 µM (inactive) | > 30 µM (inactive) | > 30 µM (inactive) | > 30 µM (inactive) | – | –
Cc1cc(-c2cc(OC(=O)c3ccccc3)ccc2Cl)cc2nnc(Nc3ccc(OCCN4CCCC4)cc3)nc12 [TG100-801] | > 30 µM (inactive) | 1.47 µM (active) | > 30 µM (inactive) | > 30 µM (inactive) | – | – | > 30 µM (inactive) | > 30 µM (inactive) | > 30 µM (inactive) | > 30 µM (inactive)
O=C(Nc1ccc(OC(F)(F)F)cc1)c1sccc1NCc1ccnc2ccccc12 [OSI-930] | > 30 µM (inactive) | > 30 µM (inactive) | – | – | > 30 µM (inactive) | > 30 µM (inactive) | > 30 µM (inactive) | – | > 30 µM (inactive) | –
C[C@@H]1COC(Nc2ccc3ncnc(Nc4ccc(OCc5nccs5)c(Cl)c4)c3c2)=N1 [VARLITINIB] | > 30 µM (inactive) | > 30 µM (inactive) | > 30 µM (inactive) | > 30 µM (inactive) | > 30 µM (inactive) | > 30 µM (inactive) | – | > 30 µM (inactive) | – | > 30 µM (inactive)
CCN(CCCOc1ccc2c(Nc3cc(CC(=O)Nc4cccc(F)c4)n[nH]3)ncnc2c1)CCOP(=O)(O)O [BARASERTIB] | – | – | – | > 30 µM (inactive) | > 30 µM (inactive) | > 30 µM (inactive) | – | – | – | –
FC(F)(F)c1ccc(CNc2ccc(Cc3c[nH]c4ncc(Cl)cc34)cn2)cn1 [PEXIDARTINIB] | > 30 µM (inactive) | > 30 µM (inactive) | – | > 30 µM (inactive) | > 30 µM (inactive) | – | > 30 µM (inactive) | – | – | > 30 µM (inactive)
